# How the values were obtained:
# [1] = test system: LTB4 production in MC/9 cells; test: MC/9 HPLC assay, inhibition of LTB4 production; type: cell-based; conditions: Mus musculus, MC9, Table 2 column 4, no concentration in head (1 μM according to b732), read-out: % Inhibition LTB4
# Protocol: (§1) Cultured MC/9 cells (3×10^6 cells) in 1 mL HBSS were pre-incubated with a series of concentrations of compound solubilized in DMSO for 30 minutes. Production of leukotrienes were stimulated with the addition of 1 μM calcium ionophore (A23187), diluted from a 4 mM DMSO stock in HBSS, and incubated at room temperature for 20 minutes. The reaction was stopped with the addition of 500 μL of methanol containing 20 ng/mL prostaglandin B2 as an internal standard. Samples were collected and stored at −20° C. at least 2 hr or overnight before centrifuged at 13,000 rpm for 15 minutes and loaded onto C18 SEP-PAK columns (Canadian Lifesciences IS12000) for solid phase extraction. The leukotrienes were analyzed by HPLC using an ACE C18 column (4.5 mm×150 mm, 5 m) eluted with acetonitrile/methanol/water mixture with H3PO4, pH 3.5 (37:26:37) with a flow rate of 1.8 mL/min. The amount of LTB4 (Cayman Chemical, 20110) and LTC4 (Cayman Chemical, 20210) were calculated based on reference standards and the level of inhibition of LTB4 production induced by the test compounds was calculated relative to control samples. The results are provided in Table 2, where Compound No. refers to the compounds identified in Table 1.
# [2] = test system: LTC4 production in MC/9 cells; test: MC/9 HPLC assay, inhibition of LTC4 production; type: cell-based; conditions: Mus musculus; for inhibition at 1 µM: MC9, Table 2 column 3, no concentration in head (1 μM according to b732), read-out: % Inhibition LTC4; for inhibition at 3 µM: MC9, 3 μM, A23187 stimulated
# Protocol: as §1
Structure (SMILES),inhibition at 1 µM [1] [%],inhibition at 1 µM [2] [%],inhibition at 3 µM [2] [%]
"CCOc1cc(CCC(O)(c2ccccc2)C(F)(F)F)ccc1Oc1nc2ccccc2s1 (centres unmarked) [Compound 130, 4-[3-ethoxy-4-(1,3-benzothiazol-2-yloxy)phenyl]-1,1,1-trifluoro-2-phenylbutan-2-ol]",10 to 30,< 10,
"CCC(O)CCc1ccc(Oc2nc3ccccc3s2)c(OC)c1 (centres unmarked) [Compound 196, 1-[4-(1,3-benzothiazol-2-yloxy)-3-methoxyphenyl]pentan-3-ol]",,,> 90
"CCC(C)(O)c1ccc(Oc2nc3ccccc3s2)cc1 (centres unmarked) [Compound 161, 2-[4-(1,3-benzothiazol-2-yloxy)phenyl]butan-2-ol]",,,< 10
"CCC(N)CCc1ccc(Oc2nc3ccccc3s2)c(OC)c1 (centres unmarked) [Compound 135, 1-[4-(1,3-benzothiazol-2-yloxy)-3-methoxyphenyl]pentan-3-amine]",30 to 50,10 to 30,
"CC(O)(CCc1ccc(Oc2nc3ccccc3s2)cc1)C(F)(F)F (centres unmarked) [Compound 140, 4-[4-(1,3-benzothiazol-2-yloxy)phenyl]-1,1,1-trifluoro-2-methylbutan-2-ol]",< 10,< 10,
"CCOc1cc(CCC(=O)CC)ccc1Oc1nc2ccccc2s1 [Compound 120, 1-[4-(1,3-benzothiazol-2-yloxy)-3-ethoxyphenyl]-pentan-3-one]",,,70 to 90
"COc1cc(CCC(=O)c2ccccc2)ccc1Oc1nc2ccccc2s1 [Compound 131, 3-[4-(1,3-benzothiazol-2-yloxy)-3-methoxyphenyl]-1-phenylpropan-1-one]",,,50 to 70
"Cc1nc2ccc(Oc3ccc(C(C)(O)C(F)(F)F)cc3)cc2s1 (centres unmarked) [Compound 170, 1,1,1-trifluoro-2-{4-[(2-methyl-1,3-benzothiazol-6-yl)oxy]phenyl}propan-2-ol]",,,> 90
"COc1cc(CCC(C)=O)ccc1Oc1nc2ccccc2s1 [Compound 110, 4-[4-(1,3-benzothiazol-2-yloxy)-3-methoxyphenyl]butan-2-one]",< 10,< 10,
"CCC(C)(O)CCc1ccc(Oc2nc3ccccc3s2)cc1 (centres unmarked) [Compound 143, 1-[4-(1,3-benzothiazol-2-yloxy)phenyl]-3-methylpentan-3-ol]",> 90,10 to 30,
"CCC(=O)CCc1ccc(Oc2nc3ccccc3s2)c(OC)c1 [Compound 101, 1-[4-(1,3-benzothiazol-2-yloxy)-3-methoxyphenyl]pentan-3-one]",< 10,< 10,
"COc1cc(CCC(C)(O)C(F)(F)F)ccc1Oc1nc2ccccc2s1 (centres unmarked) [Compound 111, 4-[4-(1,3-benzothiazol-2-yloxy)-3-methoxyphenyl]-1,1,1-trifluoro-2-methylbutan-2-ol]",,,70 to 90
"CCNC(c1ccc(Oc2nc3ccccc3s2)cc1)C(F)(F)F (centres unmarked) [Compound 168, 1-[4-(1,3-benzothiazol-2-yloxy)phenyl]-N-ethyl-2,2,2-trifluoroethanamine]",,,< 10
"CC(=O)c1ccc(Oc2nc3ccccc3s2)cc1 [Compound 159, 1-[4-(1,3-benzothiazol-2-yloxy)phenyl]ethanone]",,,10 to 30
"COc1cc(CCC(O)(c2ccccc2)C(F)(F)F)ccc1Oc1nc2ccccc2s1 (centres unmarked) [Compound 133, 3-[4-(1,3-benzothiazol-2-yloxy)-3-methoxyphenyl]-1-(trifluoromethyl)-1-phenylpropan-1-ol]",30 to 50,< 10,
"CCC(O)(CCc1ccc(Oc2nc3ccccc3s2)c(Cl)c1)C(F)(F)F (centres unmarked) [Compound 151, 1-[4-(1,3-benzothiazol-2-yloxy)-3-chlorophenyl]-3-(trifluoromethyl)pentan-3-ol]",10 to 30,10 to 30,
"CC(O)(CCc1ccc(Oc2nc3ccccc3s2)cc1)c1ccccc1 (centres unmarked) [Compound 144, 4-[4-(1,3-benzothiazol-2-yloxy)phenyl]-2-phenylbutan-2-ol]",> 90,10 to 30,
"COc1cc(CCC(C)(C)O)ccc1Oc1nc2ccccc2s1 [Compound 124, 4-[4-(1,3-benzothiazol-2-yloxy)-3-methoxyphenyl]-2-methylbutan-2-ol]",,10 to 30,
"COc1cc(CCC(c2ccccc2)N2CCCC2)ccc1Oc1nc2ccccc2s1 (centres unmarked) [Compound 134, 2-{2-methoxyl-4-[3-phenyl-3-(pyrrolidin-1-yl)propyl]phenoxy}-1,3-benzothiazole]",10 to 30,10 to 30,
"CC(c1ccc(Oc2nc3ccccc3s2)cc1)N1CCCC1 (centres unmarked) [Compound 162, 2-{4-[1-(pyrrolidin-1-yl)ethyl]phenoxy}-1,3-benzothiazole]",,,< 10
"CCC(CCc1ccc(Oc2nc3ccccc3s2)c(OC)c1)N1CCOCC1 (centres unmarked) [Compound 136, 4-{1-[3-methoxy-4-(1,3-benzothiazol-2-yloxy)phenyl]pentan-3-yl}morpholine]",,,10 to 30
"COc1cc(CCC(C)O)ccc1Oc1nc2ccccc2s1 (centres unmarked) [Compound 122, 4-[4-(1,3-benzothiazol-2-yloxy)-3-methoxyphenyl]-butan-2-ol]",30 to 50,30 to 50,
"CC(=O)CCc1ccc(OCc2ccc3ccccc3n2)cc1 [Compound 189, 4-{4-[(quinolinyl-2-yl)methoxy]phenyl}butan-2-one]",,,70 to 90
"CCC(C)(O)CCc1ccc(Oc2nc3ccccc3o2)c(OC)c1 (centres unmarked) [Compound 127, 1-[4-(1,3-benzoxazol-2-yloxy)-3-methoxyphenyl]-3-methylpentan-3-ol]",< 10,< 10,
"Cc1nc2ccc(Oc3ccc(C(C)O)cc3)cc2s1 (centres unmarked) [Compound 171, 1-{4-[(2-methyl-1,3-benzothiazol-6-yl)oxy]phenyl}ethanol]",,,70 to 90
"COc1cc(CCC(C)(C)O)ccc1Oc1nc2ccccc2o1 [Compound 126, 4-[4-(1,3-benzoxazol-2-yloxy)-3-methoxyphenyl]-2-methylbutan-2-ol]",10 to 30,< 10,
"CCC(O)(CCc1ccc(Oc2nc3ccccc3s2)c(OC2CCCC2)c1)C(F)(F)F (centres unmarked) [Compound 116, 1-[4-(1,3-benzothiazol-2-yloxy)-3-(cyclopentyloxy)-phenyl]-3-(trifluoromethyl)-pentan-3-ol]",< 10,< 10,

# Reference: patent US12686668B2, “Leukotriene synthesis inhibitors” (Naegis Pharmaceuticals Inc., priority 2019, dated 2026)
